Test results as given in US20250145637A1, “SULFONAMIDE DERIVATIVE, PREPARATION METHOD THEREFOR AND MEDICAL USE THEREOF” (Jiangsu Hengrui Pharmaceuticals Co. Ltd., priority 2021, published 2025).

Tests used:
human KAT6B = human KAT6B (Homo sapiens (Human), UniProt Q8WYB5); assay: KAT6B enzyme activity assay (AlphaScreen method); type: biochemical; details: inhibition of the enzyme human KAT6B
Text: Test Example 2: KAT6B Enzyme Activity Assay (AlphaScreen Method)
I. Reagents and Instrument
• 1. KAT6B (718-1008) (ActiveMotif, 81224) • 2. Bovine serum albumin (Sangon, A500023-0100) • 3. 2 M Tris-HCl solution, pH 7.8, sterile (Sangon, B548140-0500) • 4. EDTA (0.5 M), pH 8. 0, RNase-free (Thermofisher, AiM9260G) • 5. Tween-20 (Sangon, A100777-0500) • 6. DTT, 1 M (Invitrogen, P2325) • 7. Acetyl coenzyme A (Ac-CoA, CAYMAN, Cat. No. 16160) • 8. Recombinant histone H3.1 biotinylated (human) (Active Motif 31696) • 9. 384-well plate, light gray (Perkin Elmer, Cat. No. 6007290) • 10. Anacardic acid (MCE, Cat. No. HY—N2020) • 11. AlphaScreen streptavidin donor beads, 5 mg (PerkinElmer, 6760002) • 12. AlphaScreen protein A acceptor beads, 5 mg (PerkinElmer, 6760137M) • 13. Acetylated-lysine antibody #9441 (CST 9441S) • 14. DMSO (Tansoole, G7592B) • 15. PHERA star microplate reader (BMG labtech)
a. 1× buffer 2: 50 mM Tris-HCl, pH 7.8; 0.1 mM EDTA; 0.01% v/v tween-20; 1 mM DTT; 0.01% m/v bovine serum albumin.
b. KAT6B enzyme solution: 3 nM (final concentration), prepared in buffer 2.
c. Mixed substrate of Ac-CoA and H3: a mixed substrate of 30 nM (final concentration) Ac-CoA and 30 nM (final concentration) H3, prepared in buffer 2.
d. Compounds: initial concentration of 10 mM, 4-fold dilution, 10 gradient concentrations. All compound concentrations were diluted 2500-fold with buffer 2 for later use.
e. Assay reagent: 8 ng/μL (final concentration) AlphaScreen protein A acceptor beads, 8 ng/μL AlphaScreen streptavidin donor beads, 1:1000 diluted acetylated-lysine antibody, and 100 μM anacardic acid; prepared in buffer 2.
2. Experimental Procedure
a. The prepared compound solutions were added to a 384-well plate at 2 μL/well, and 2 μL of buffer 2 (containing 0.04% DMSO) was added to each Min well and each Max well as controls. The plate was centrifuged.
b. The prepared enzyme solution was added at 2 μL/well, and 2 μL of buffer 2 was added to each Min well. The plate was centrifuged, shaken for 2 min, and incubated at room temperature for 10 min.
c. The mixed substrate of Ac-CoA and H3 was added at 4 μL/well, and the plate was centrifuged, shaken for 2 min, and incubated at room temperature for 120 min.
d. The assay reagent was added at 4 μL/well, and the plate was centrifuged, shaken for 2 min, and incubated in the dark at room temperature for 120 min.
e. Plate reading was performed on the microplate reader, and AlphaScreen counts were recorded.
f. Dose-response curves were plotted using log(inhibitor) vs. response of the graphpad prism software, with the abscissa representing the logarithm of the compound concentration and the ordinate representing the calculated enzyme activity inhibition rate, and IC50 values were calculated.

[1] = Pharmacokinetic evaluation in SD rats; type: in vivo; details: both sexes, rat, plasma, po, i.g., 2.0 mg/kg; for Vd/F: read-out: Apparent distribution volume Vz/F; for AUC(0-t): read-out: Area under curve AUC0-t; for CL/F: read-out: Clearance rate CL/F; for half-life: read-out: Half-life T½ (converted); for Cmax: read-out: Plasma concentration Cmax
Protocol: Test Example 5: Pharmacokinetic Evaluation
SD rats were used as test animals. After intragastric (i.g.) administration of the compounds of the present disclosure to SD rats, the plasma concentrations at different time points were measured by the LC/MS/MS method. The pharmacokinetic behavior of the compounds of the present disclosure in SD rats was studied, and their pharmacokinetic profiles were evaluated.
Compound 2, compound 7, compound 21, and compound 23.
16 SD rats, of which half were male and half female, were evenly divided into 4 groups. The rats were provided by Vital River Laboratory Animal Technology Co., Ltd. The rats were fasted overnight and intragastrically administered the compounds.
2.3. Compound Solution Preparation
A certain amount of test compound was weighed out and dissolved in 5% DMSO+5% tween 80+90% normal saline to prepare a 0.2 mg/mL colorless clear solution.
The dose administered was 2.0 mg/kg, and the volume was 10.0 mL/kg.
0.1 mL blood samples were collected from the orbit before the administration and 0.25 h, 0.5 h, 1.0 h, 2.0 h, 4.0 h, 6.0 h, 8.0 h, 11.0 h and 24.0 h post-dose. The blood samples were placed into EDTA-K2 anticoagulation tubes and centrifuged at 10,000 rpm for 1 min (4° C.), and plasma was separated within 1 h and stored at −20° C. before analysis. The process from the blood collection to the centrifugation was performed in an ice bath. Access to food was given 2 h post-dose.
Measurement of plasma concentrations in SD rats after compounds were administered in different concentrations: 25 μL samples of the SD rat plasma collected at various time points post-dose were taken, and to each of the samples was added 25 μL of camptothecin (an internal standard for compound 2, 100 ng/mL) or 50 μL of tolbutamide (an internal standard for compound 7, 100 ng/mL) or 50 μL of verapamil (an internal standard for compounds 21 and 23, 100 ng/mL). Protein was precipitated with 200 μL of acetonitrile, and after 5 min of vortexing, the mixtures were centrifuged at 3700 rpm for 10 min. 120 µL of supernatant was taken and vortexed with 30 μL of water for 5 min, and a 5 μL sample was taken for LC/MS/MS analysis.

human KAT6B, sequence (Q8WYB5 718-1008): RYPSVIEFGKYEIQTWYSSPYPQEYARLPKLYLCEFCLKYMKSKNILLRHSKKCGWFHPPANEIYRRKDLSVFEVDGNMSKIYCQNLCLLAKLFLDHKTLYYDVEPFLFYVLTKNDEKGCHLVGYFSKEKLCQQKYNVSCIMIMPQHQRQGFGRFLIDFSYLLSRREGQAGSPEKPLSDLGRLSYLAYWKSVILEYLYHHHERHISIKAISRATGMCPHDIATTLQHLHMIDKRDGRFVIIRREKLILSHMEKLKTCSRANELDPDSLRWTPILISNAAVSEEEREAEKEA

| SMILES | IC50 (human KAT6B) [nM] | Vd/F [1] [L/kg] | AUC(0-t) [1] [ng·h/mL] | CL/F [1] [mL/min/kg] | half-life [1] [h] | Cmax [1] [ng/mL] |
| --- | --- | --- | --- | --- | --- | --- |
| COc1cccc(OC)c1S(=O)(=O)Nc1noc2cc(Cn3cccn3)c3c(c12)OCC3 [Compound 1, N-(4-((1H-pyrazol-1-yl)methyl)-2,3-dihydrobenzofuro[7,6-d]isoxazol-8-yl)-2,6-dimethoxybenzenesulfonamide] | 1.1 |  |  |  |  |  |
| COc1cccc(OC)c1S(=O)(=O)Nc1noc2cc(Cn3cccn3)c3c(c12)OCCC3 [Compound 2, N-(5-((1H-pyrazol-1-yl)methyl)-3,4-dihydro-2H-chromeno[8,7-d]isoxazol-9-yl)-2,6-dimethoxybenzenesulfonamide] | 0.7 | 0.202 | 43300 | 0.8 | 2.96 | 8210 |
| COc1ccccc1S(=O)(=O)Nc1noc2cc(Cn3cccn3)c3c(c12)OCCC3 [Compound 3, N-(5-((1H-pyrazol-1-yl)methyl)-3,4-dihydro-2H-chromeno[8,7-d]isoxazol-9-yl)-2-methoxybenzenesulfonamide] | 1.4 |  |  |  |  |  |
| COc1cccc(OC)c1S(=O)(=O)Nc1noc2cc(Cn3cccn3)c3c(c12)OC(F)(F)O3 [Compound 5, N-(4-((1H-pyrazol-1-yl)methyl)-2,2-difluoro-[1,3]dioxolo[4′,5′:5,6]benzo[1,2-d]isoxazol-8-yl)-2,6-dimethoxybenzenesulfonamide] | 1.5 |  |  |  |  |  |
| CCOc1cc(C)ccc1S(=O)(=O)Nc1noc2cc(Cn3cccn3)c3c(c12)OCCC3 [Compound 7, N-(5-((1H-pyrazol-1-yl)methyl)-3,4-dihydro-2H-chromeno[8,7-d]isoxazol-9-yl)-2-ethoxy-4-methylbenzenesulfonamide] |  | 0.25 | 81300 | 0.614 | 6.71 | 9200 |
| COc1cccc(OC(F)(F)F)c1S(=O)(=O)Nc1noc2cc(Cn3cccn3)c3c(c12)OCC3 [Compound 23, N-(4-((1H-pyrazol-1-yl)methyl)-2,3-dihydrobenzofuro[7,6-d]isoxazol-8-yl)-2-methoxy-6-(trifluoromethoxy)benzenesulfonamide] |  | 0.47 | 61200 | 0.431 | 13.7 | 6240 |
